In patent US20180051017A1, “AGENT FOR TREATMENT OF SCHIZOPHRENIA” (Sumitomo Dainippon Pharma Co., Ltd., priority 2002, published 2018):
Counter-ions that a name gives are not always drawn.

System: patients with schizophrenia in the acute exacerbation phase
Test: First stage phase II clinical trial: safety (adverse events, serious adverse events, side effects, ECG, laboratory tests)
Type: in vivo, human
Method: According to the procedures as shown in Table 1 as described below, the placebo-controlled double blind experiment was done on 149 patients with schizophrenia in the acute exacerbation phase at 15 facilities in USA. The efficacy and safeness were studied when SM-13496 at a dose of 40 mg or 120 mg, or a placebo was orally administered once a day for 6 weeks after placebo washout.

[1] = 120 mg orally once a day for 6 weeks, 49 subjects

O=C1[C@@H]2[C@@H]3CC[C@@H](C3)[C@@H]2C(=O)N1C[C@@H]1CCCC[C@H]1CN1CCN(c2nsc3ccccc23)CC1 [SM-13496, (1R,2S,3R,4S)-N-[(1R,2R)-2-[4-(1,2-benzoisothiazol-3-yl)-1-piperazinyl-methyl]-1-cyclohexylmethyl]-2,3-bicyclo[2.2.1]heptanedicarboximide hydrochloride]
Number of subjects showing serious adverse events (%) [1]: 3 (6) number of subjects (%) | Number of subjects who drop out from the trial due to adverse events (%) [1]: 6 (12) number of subjects (%) | Occurrence of adverse event: Akathisia (120 mg, 6 weeks, 49 subjects): 7 (14) number of subjects (%) | Occurrence of adverse event: Digestive disturbance (120 mg, 6 weeks, 49 subjects): 2 (4) number of subjects (%) | Occurrence of adverse event: Drowsiness (120 mg, 6 weeks, 49 subjects): 5 (10) number of subjects (%) | Occurrence of adverse event: Exacerbation of schizophrenia (120 mg, 6 weeks, 49 subjects): 1 (2) number of subjects (%) | Occurrence of adverse event: Free-floating vertigo (excluding rotatory vertigo) (120 mg, 6 weeks, 49 subjects): 5 (10) number of subjects (%) | Occurrence of adverse event: Headache (120 mg, 6 weeks, 49 subjects): 3 (6) number of subjects (%) | Occurrence of adverse event: Nausea (120 mg, 6 weeks, 49 subjects): 11 (22) number of subjects (%) | Occurrence of adverse event: Suppression (120 mg, 6 weeks, 49 subjects): 7 (14) number of subjects (%) | Occurrence of serious adverse event: Exacerbation of paranoia (120 mg, 6 weeks, 49 subjects): 0 (0) number of subjects (%) | Occurrence of serious adverse event: Exacerbation of schizophrenia (120 mg, 6 weeks, 49 subjects): 1 (2) number of subjects (%) | Occurrence of serious adverse event: Paranoid schizophrenia (120 mg, 6 weeks, 49 subjects): 1 (2) number of subjects (%) | Occurrence of serious adverse event: Psychosis aggravated (120 mg, 6 weeks, 49 subjects): 0 (0) number of subjects (%) | Occurrence of side effects (%) (120 mg, 6 weeks, 49 subjects): 35 (71) number of subjects (%) | Serious adverse events: Total (%) (120 mg, 6 weeks, 49 subjects): 2 (4) number of subjects (%) | Side effect: Abdominal pain (Gastroenteric disturbance) (120 mg, 6 weeks, 49 subjects): 0 (0) number of subjects (%) | Side effect: Abnormal electrocardiogram (Laboratory assay) (120 mg, 6 weeks, 49 subjects): 0 (0) number of subjects (%) | Side effect: Abnormal liver function tests (Laboratory assay) (120 mg, 6 weeks, 49 subjects): 1 (2) number of subjects (%) | Side effect: Agitation (Mental disturbance) (120 mg, 6 weeks, 49 subjects): 1 (2) number of subjects (%) | Side effect: Agitation aggravated (Mental disturbance) (120 mg, 6 weeks, 49 subjects): 2 (4) number of subjects (%) | Side effect: Akathisia (Nervous system disorder) (120 mg, 6 weeks, 49 subjects): 7 (14) number of subjects (%) | Side effect: Akathisia aggravated (Nervous system disorder) (120 mg, 6 weeks, 49 subjects): 0 (0) number of subjects (%) | Side effect: Anarthria (Nervous system disorder) (120 mg, 6 weeks, 49 subjects): 1 (2) number of subjects (%) | Side effect: Anorexia (Metabolic disturbances and nutritional disturbance) (120 mg, 6 weeks, 49 subjects): 0 (0) number of subjects (%) | Side effect: Anxiety aggravated (Mental disturbance) (120 mg, 6 weeks, 49 subjects): 0 (0) number of subjects (%) | Side effect: Articular rigidity (Musculoskeletal system and connective tissue disorder) (120 mg, 6 weeks, 49 subjects): 0 (0) number of subjects (%) | Side effect: Blurred vision (Ocular disturbance) (120 mg, 6 weeks, 49 subjects): 1 (2) number of subjects (%) | Side effect: Breathing difficulty (Disturbance in respiratory organ, chest and mediastinum) (120 mg, 6 weeks, 49 subjects): 1 (2) number of subjects (%) | Side effect: Cervical rigidity (Musculoskeletal system and connective tissue disorder) (120 mg, 6 weeks, 49 subjects): 0 (0) number of subjects (%) | Side effect: Cogwheel rigidity (Nervous system disorder) (120 mg, 6 weeks, 49 subjects): 1 (2) number of subjects (%) | Side effect: Constipation (Gastroenteric disturbance) (120 mg, 6 weeks, 49 subjects): 0 (0) number of subjects (%) | Side effect: Decrease in appetite (Metabolic disturbances and nutritional disturbance) (120 mg, 6 weeks, 49 subjects): 1 (2) number of subjects (%) | Side effect: Diarrhea (Gastroenteric disturbance) (120 mg, 6 weeks, 49 subjects): 0 (0) number of subjects (%) | Side effect: Drowsiness (Nervous system disorder) (120 mg, 6 weeks, 49 subjects): 5 (10) number of subjects (%) | Side effect: Dry eye (Ocular disturbance) (120 mg, 6 weeks, 49 subjects): 0 (0) number of subjects (%) | Side effect: Dry mouth (Gastroenteric disturbance) (120 mg, 6 weeks, 49 subjects): 0 (0) number of subjects (%) | Side effect: Dyspepsia (Gastroenteric disturbance) (120 mg, 6 weeks, 49 subjects): 2 (4) number of subjects (%) | Side effect: Dystonic reaction (Nervous system disorder) (120 mg, 6 weeks, 49 subjects): 0 (0) number of subjects (%) | Side effect: Exacerbation of insomnia (Mental disturbance) (120 mg, 6 weeks, 49 subjects): 1 (2) number of subjects (%) | Side effect: External otitis (Infection and parasitosis) (120 mg, 6 weeks, 49 subjects): 0 (0) number of subjects (%) | Side effect: Extrapyramidal disease (Nervous system disorder) (120 mg, 6 weeks, 49 subjects): 3 (6) number of subjects (%) | Side effect: Fatigue (Total disability and local condition) (120 mg, 6 weeks, 49 subjects): 1 (2) number of subjects (%) | Side effect: Fatigue aggravated (Total disability and local condition) (120 mg, 6 weeks, 49 subjects): 0 (0) number of subjects (%) | Side effect: Flatulence (Gastroenteric disturbance) (120 mg, 6 weeks, 49 subjects): 0 (0) number of subjects (%) | Side effect: Flushing (Vascular diseases) (120 mg, 6 weeks, 49 subjects): 0 (0) number of subjects (%) | Side effect: Free-floating vertigo (excluding rotatory vertigo) (Nervous system disorder) (120 mg, 6 weeks, 49 subjects): 5 (10) number of subjects (%) | Side effect: Frequent urination (Renal Injury and urinary disorder) (120 mg, 6 weeks, 49 subjects): 0 (0) number of subjects (%) | Side effect: Glossoplegia (Nervous system disorder) (120 mg, 6 weeks, 49 subjects): 0 (0) number of subjects (%) | Side effect: Headache (Nervous system disorder) (120 mg, 6 weeks, 49 subjects): 1 (2) number of subjects (%) | Side effect: Heavy feeling (Musculoskeletal system and connective tissue disorder) (120 mg, 6 weeks, 49 subjects): 0 (0) number of subjects (%) | Side effect: Hot flashes (Vascular diseases) (120 mg, 6 weeks, 49 subjects): 1 (2) number of subjects (%) | Side effect: Hot sensation (Total disability and local condition) (120 mg, 6 weeks, 49 subjects): 0 (0) number of subjects (%) | Side effect: Increase in creatine phosphokinase level in the blood (Laboratory assay) (120 mg, 6 weeks, 49 subjects): 0 (0) number of subjects (%) | Side effect: Increase in prolactin level in the blood (Laboratory assay) (120 mg, 6 weeks, 49 subjects): 1(2) number of subjects (%) | Side effect: Increase in total protein (Laboratory assay) (120 mg, 6 weeks, 49 subjects): 0 (0) number of subjects (%) | Side effect: Insomnia (Mental disturbance) (120 mg, 6 weeks, 49 subjects): 1 (2) number of subjects (%) | Side effect: Laryngopharynx pain (Disturbance in respiratory organ, chest and mediastinum) (120 mg, 6 weeks, 49 subjects): 0 (0) number of subjects (%) | Side effect: Loose stools (Gastroenteric disturbance) (120 mg, 6 weeks, 49 subjects): 1 (2) number of subjects (%) | Side effect: Melalgia (Musculoskeletal system and connective tissue disorder) (120 mg, 6 weeks, 49 subjects): 1 (2) number of subjects (%) | Side effect: Muscle stiffness (Musculoskeletal system and connective tissue disorder) (120 mg, 6 weeks, 49 subjects): 1 (2) number of subjects (%) | Side effect: Myalgic pain (Musculoskeletal system and connective tissue disorder) (120 mg, 6 weeks, 49 subjects): 1 (2) number of subjects (%) | Side effect: Nausea (Gastroenteric disturbance) (120 mg, 6 weeks, 49 subjects): 9 (18) number of subjects (%) | Side effect: Nightmare (Mental disturbance) (120 mg, 6 weeks, 49 subjects): 1 (2) number of subjects (%) | Side effect: Palpitation (Heart problems) (120 mg, 6 weeks, 49 subjects): 1 (2) number of subjects (%) | Side effect: Parotiditis (Infection and parasitosis) (120 mg, 6 weeks, 49 subjects): 0 (0) number of subjects (%) | Side effect: Polyuria (Renal Injury and urinary disorder) (120 mg, 6 weeks, 49 subjects): 0 (0) number of subjects (%) | Side effect: Pruritus (Disturbance in Skin and Hypodermis) (120 mg, 6 weeks, 49 subjects): 0 (0) number of subjects (%) | Side effect: Psychosis aggravated (Mental disturbance) (120 mg, 6 weeks, 49 subjects): 2 (4) number of subjects (%) | Side effect: Restlessness (Mental disturbance) (120 mg, 6 weeks, 49 subjects): 1 (2) number of subjects (%) | Side effect: Salivary hypersecretion (Gastroenteric disturbance) (120 mg, 6 weeks, 49 subjects): 0 (0) number of subjects (%) | Side effect: Sinus tachycardia (Heart problems) (120 mg, 6 weeks, 49 subjects): 1 (2) number of subjects (%) | Side effect: Sleepiness (Total disability and local condition) (120 mg, 6 weeks, 49 subjects): 2 (4) number of subjects (%) | Side effect: Suppression (Nervous system disorder) (120 mg, 6 weeks, 49 subjects): 7 (14) number of subjects (%) | Side effect: Tinea pedis (Infection and parasitosis) (120 mg, 6 weeks, 49 subjects): 1 (2) number of subjects (%) | Side effect: Tongue disturbance (Gastroenteric disturbance) (120 mg, 6 weeks, 49 subjects): 0 (0) number of subjects (%) | Side effect: Tremor (Nervous system disorder) (120 mg, 6 weeks, 49 subjects): 3 (6) number of subjects (%) | Side effect: Trismus (Nervous system disorder) (120 mg, 6 weeks, 49 subjects): 1 (2) number of subjects (%) | Side effect: Urinary tract infection (Infection and parasitosis) (120 mg, 6 weeks, 49 subjects): 0 (0) number of subjects (%) | Side effect: Vomiting (Gastroenteric disturbance) (120 mg, 6 weeks, 49 subjects): 3 (6) number of subjects (%) | Side effect: Weight loss (Laboratory assay) (120 mg, 6 weeks, 49 subjects): 2 (4) number of subjects (%) | Akathisia (adverse event) (120 mg-treated group): 14% | Digestive disturbance compared to the placebo-treated group (120 mg-treated group): less observed | Exacerbation of schizophrenia (adverse event) (120 mg-treated group): 2% | Nausea compared to the other groups (120 mg-treated group): more observed | Ratio of the subjects showing suppression (120 mg-treated group): 14% | Serious adverse events (120 mg-treated group): 2 cases | Change in body temperature, respiration rate, funduscopic examination and slit-lamp microscopy (SM-13496-treated groups): no clinically significant change | Occurrence of dystonic reaction (SM-13496-treated groups): less than 4% | Prolactin level in the blood (SM-13496-treated groups): moderate increase | Number of subjects who dropped out from the trial due to the adverse events compared to placebo (both groups treated by two doses): higher | Occurrence of the adverse events compared to placebo (groups treated by SM-13496): the same as that in the placebo-treated group
